Test results taken from US11566028B2, “Bicyclic heterocycles as FGFR inhibitors” (Incyte Corporation, priority 2019, dated 2023).

Legend:
Type in all cases: biochemical
Details in all cases: pre-incubated for 4 hours
FGFR1 = FGFR1 (Homo sapiens (Human), UniProt P11362); test: FGFR Enzymatic Assay (FRET peptide phosphorylation), FGFR1
FGFR4 = FGFR4 (Homo sapiens (Human), UniProt P22455); test: FGFR Enzymatic Assay (FRET peptide phosphorylation), FGFR4
FGFR2 = FGFR2 (Homo sapiens (Human), UniProt P21802); test: FGFR Enzymatic Assay (FRET peptide phosphorylation), FGFR2
Chain of FGFR2 (P21802 22-821): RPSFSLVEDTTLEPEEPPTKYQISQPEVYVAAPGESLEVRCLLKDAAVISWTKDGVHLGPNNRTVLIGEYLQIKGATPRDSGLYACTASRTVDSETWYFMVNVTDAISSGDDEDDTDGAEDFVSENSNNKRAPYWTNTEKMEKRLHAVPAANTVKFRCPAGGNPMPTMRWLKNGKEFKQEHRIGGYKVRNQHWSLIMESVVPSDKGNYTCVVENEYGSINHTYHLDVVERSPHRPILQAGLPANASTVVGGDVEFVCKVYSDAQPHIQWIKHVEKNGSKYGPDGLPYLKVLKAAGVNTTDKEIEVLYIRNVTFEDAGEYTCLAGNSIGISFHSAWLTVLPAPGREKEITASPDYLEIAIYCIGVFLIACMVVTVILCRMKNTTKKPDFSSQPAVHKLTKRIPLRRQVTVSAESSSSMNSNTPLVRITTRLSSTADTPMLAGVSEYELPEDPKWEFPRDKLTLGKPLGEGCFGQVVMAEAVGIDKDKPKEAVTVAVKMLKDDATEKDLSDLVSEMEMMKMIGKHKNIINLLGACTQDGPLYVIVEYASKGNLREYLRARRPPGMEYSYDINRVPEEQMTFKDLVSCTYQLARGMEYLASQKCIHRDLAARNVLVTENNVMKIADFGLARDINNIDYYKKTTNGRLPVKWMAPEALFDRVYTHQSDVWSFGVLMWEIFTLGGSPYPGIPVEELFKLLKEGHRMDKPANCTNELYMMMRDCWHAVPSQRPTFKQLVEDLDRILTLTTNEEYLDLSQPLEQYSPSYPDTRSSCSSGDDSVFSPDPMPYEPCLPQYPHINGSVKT

[1] = target: wild-type un-phosphorylated FGFR3 protein (Homo sapiens (Human), UniProt P22607); test: FGFR Enzymatic Assay (FRET peptide phosphorylation), FGFR3
Chain of wild-type un-phosphorylated FGFR3 protein (P22607 23-806): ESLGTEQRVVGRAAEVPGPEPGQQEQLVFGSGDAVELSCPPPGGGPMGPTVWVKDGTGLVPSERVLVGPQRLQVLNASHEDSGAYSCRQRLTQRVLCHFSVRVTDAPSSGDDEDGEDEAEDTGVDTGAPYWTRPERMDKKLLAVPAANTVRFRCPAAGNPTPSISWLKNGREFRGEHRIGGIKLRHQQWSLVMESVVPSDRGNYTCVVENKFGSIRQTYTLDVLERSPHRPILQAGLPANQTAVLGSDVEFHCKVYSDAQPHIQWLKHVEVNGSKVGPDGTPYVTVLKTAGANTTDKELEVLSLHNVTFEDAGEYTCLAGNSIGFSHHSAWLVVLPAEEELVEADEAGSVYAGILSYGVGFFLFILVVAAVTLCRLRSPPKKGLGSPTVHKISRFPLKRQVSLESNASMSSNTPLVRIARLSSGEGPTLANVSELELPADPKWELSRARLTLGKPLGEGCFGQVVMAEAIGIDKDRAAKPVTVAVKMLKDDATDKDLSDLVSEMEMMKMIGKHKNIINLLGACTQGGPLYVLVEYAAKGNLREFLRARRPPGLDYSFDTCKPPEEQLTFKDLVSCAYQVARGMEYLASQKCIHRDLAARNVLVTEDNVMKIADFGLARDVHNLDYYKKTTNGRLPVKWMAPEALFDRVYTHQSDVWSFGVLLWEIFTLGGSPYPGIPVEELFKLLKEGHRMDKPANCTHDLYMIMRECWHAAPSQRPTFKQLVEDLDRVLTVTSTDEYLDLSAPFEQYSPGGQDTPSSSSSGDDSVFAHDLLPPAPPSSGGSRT

Chain of FGFR4 (P22455 22-802): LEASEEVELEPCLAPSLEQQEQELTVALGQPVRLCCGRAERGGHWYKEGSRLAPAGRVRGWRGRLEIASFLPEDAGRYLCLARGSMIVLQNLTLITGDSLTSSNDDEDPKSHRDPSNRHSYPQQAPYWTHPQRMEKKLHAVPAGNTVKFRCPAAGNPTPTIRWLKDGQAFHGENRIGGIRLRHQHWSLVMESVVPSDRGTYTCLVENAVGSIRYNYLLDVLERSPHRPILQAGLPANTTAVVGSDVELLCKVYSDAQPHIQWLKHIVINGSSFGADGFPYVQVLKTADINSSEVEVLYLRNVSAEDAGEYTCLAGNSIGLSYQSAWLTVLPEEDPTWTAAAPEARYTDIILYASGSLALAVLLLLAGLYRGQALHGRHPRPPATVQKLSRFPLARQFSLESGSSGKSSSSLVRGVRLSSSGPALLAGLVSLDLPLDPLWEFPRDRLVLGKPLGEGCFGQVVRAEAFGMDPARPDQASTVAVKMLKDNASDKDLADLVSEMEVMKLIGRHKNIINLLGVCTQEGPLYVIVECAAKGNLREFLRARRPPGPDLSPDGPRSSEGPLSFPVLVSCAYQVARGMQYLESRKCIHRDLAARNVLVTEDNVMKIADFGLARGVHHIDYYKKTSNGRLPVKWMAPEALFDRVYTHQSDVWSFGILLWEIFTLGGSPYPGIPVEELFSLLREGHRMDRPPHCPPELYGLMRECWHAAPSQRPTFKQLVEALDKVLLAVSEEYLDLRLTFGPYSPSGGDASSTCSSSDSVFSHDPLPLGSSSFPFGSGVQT
Chain of FGFR1 (P11362 22-822): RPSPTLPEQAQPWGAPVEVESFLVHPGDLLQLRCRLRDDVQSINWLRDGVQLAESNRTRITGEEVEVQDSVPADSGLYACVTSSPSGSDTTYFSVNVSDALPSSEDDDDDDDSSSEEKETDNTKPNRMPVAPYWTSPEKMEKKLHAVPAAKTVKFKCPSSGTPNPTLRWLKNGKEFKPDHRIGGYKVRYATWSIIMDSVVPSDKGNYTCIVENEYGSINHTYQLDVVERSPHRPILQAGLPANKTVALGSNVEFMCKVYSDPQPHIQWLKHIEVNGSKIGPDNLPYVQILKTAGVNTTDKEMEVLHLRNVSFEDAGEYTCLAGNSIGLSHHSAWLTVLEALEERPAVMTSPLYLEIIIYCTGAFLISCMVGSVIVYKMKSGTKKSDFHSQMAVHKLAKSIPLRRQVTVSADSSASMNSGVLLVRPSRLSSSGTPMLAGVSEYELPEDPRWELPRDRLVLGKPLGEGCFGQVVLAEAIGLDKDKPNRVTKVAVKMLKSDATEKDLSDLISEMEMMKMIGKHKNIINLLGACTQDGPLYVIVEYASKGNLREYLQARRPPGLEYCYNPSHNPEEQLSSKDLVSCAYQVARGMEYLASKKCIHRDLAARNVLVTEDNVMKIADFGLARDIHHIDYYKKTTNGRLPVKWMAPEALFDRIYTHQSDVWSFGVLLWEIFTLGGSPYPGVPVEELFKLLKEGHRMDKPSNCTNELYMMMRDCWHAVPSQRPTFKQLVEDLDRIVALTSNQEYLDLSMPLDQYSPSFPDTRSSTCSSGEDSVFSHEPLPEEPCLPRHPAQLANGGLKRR

Structure (SMILES) | IC50 (FGFR1) | IC50 (FGFR4) | IC50 (FGFR2) | IC50 [1]
CNC(=O)c1cc(C)c(F)c(-c2cnn3cc(-c4cnn([C@@H]5CCN(C)C[C@H]5F)c4)c(N[C@H]4CCOC4)nc23)c1 [Example 65, 4-Fluoro-3-(6-(1-((3R,4R)-3-fluoro-1-methylpiperidin-4-yl)-1H-pyrazol-4-yl)-5-(((S)-tetrahydrofuran-3-yl)amino)pyrazolo[1,5-a]pyrimidin-3-yl)-N,5-dimethylbenzamide] | 10 to 30 nM | 30 to 200 nM | < 10 nM | < 10 nM
[2H]C([2H])([2H])NC(=O)c1cc(-c2cnn3cc(-c4ccc(CN5C[C@H]6C[C@@H]5CO6)nc4)c(O[C@H]4CCOC4)nc23)c(F)c(C(F)F)c1 [Example 66, 3-(6-(6-(((1R,4R)-2-Oxa-5-azabicyclo[2.2.1]heptan-5-yl)methyl)pyridin-3-yl)-5-(((S)-tetrahydrofuran-3-yl)oxy)pyrazolo[1,5-a]pyrimidin-3-yl)-5-(difluoromethyl)-4-fluoro-N-(methyl-d3)benzamide] | 30 to 200 nM | 30 to 200 nM | < 10 nM | < 10 nM
